In patent publication US12692256B2, “Salts and crystalline forms of a TAAR1 agonist” (Hoffmann-La Roche Inc., priority 2020, dated 2026):
Entries after “also recorded” stand apart in the source; their conditions may differ. Counter-ions that a name gives are not always drawn.

Experiments:
[1] = Dynamic Vapour Sorption (DVS) hygroscopicity; format: physicochemical; conditions: for Hygroscopicity, weight increase: 0%-RH to 90%-RH at 25° C.; for Hygroscopicity: increase in mass when relative humidity is raised from 0%-RH to 90%-RH at 25° C.
Description: For each salt formation experiment 5-ethyl-4-methyl-N-[4-[(2S) morpholin-2-yl]phenyl]-1H-pyrazole-3-carboxamide (approx. 450 mg) was dissolved in dioxane (approx. 90 mL) at elevated temperature (approx. 90° C.) in a 100 mL glass vial. The clear solution was then cooled to 60° C. (to approx. 40° C. for adipic acid) prior to the addition of approx. 1.1 equivalents (approx. 0.55 equivalents for sulfuric acid) of a 0.5 M (0.2 M for fumaric acid) stock solution in dioxane of the respective acid under agitation. The reaction mixture was then allowed to reach ambient temperature passively and further agitated overnight. In the cases of adipic acid, the solvent was partially evaporated at this stage to increase the yield. The solid residue was collected by filtration and rinsed with approx. 2 mL of dioxane. A sample of the wet product was analyzed by XRPD. The remainder of the product was dried in a vacuum tray dryer at 50° C./<10 mbar for 2 days prior to analysis by XRPD, DSC, TGA, and, if appropriate, also by DVS.
Moisture sorption/desorption data were collected on a DVS Advantage, a DVS Adventure, or a DVS Intrinsic (SMS Surface Measurements Systems) moisture balance system. The sorption/desorption isotherms were measured stepwise in a range from 0%-RH to 90%-RH at typically 25° C. A weight change of typically <0.001%/min was chosen as criterion to switch to the next level of relative humidity (with a maximum equilibration time of typically 24 hours, if the weight change criterion was not met). The data were corrected for the initial moisture content of the samples by taking the weight after drying of the samples at 0%-RH as zero point. The hygroscopicity of a given substance is characterized (by close analogy with the European Pharmacopoeia) by the increase in mass when the relative humidity is raised from 0%-RH to 90%-RH at 25° C.: […]

[2] = Aqueous solubility; format: physicochemical
Description: Aqueous solubility was determined by suspending sufficient compound in water water to give a maximum final concentration of 100 mg/mL. The solution was stirred for 24 hours at room temperature (25° C.±5° C.) on a magnetic stirrer using a magnetic stir bar. The final pH of the suspension was measured after 24 hours with a standard pH meter. The suspension was filtered by centrifugation through a ≤0.45 μm PVDF filter. The filtrate was then diluted 1:500 using a solution of ethanol: water (1:1). Quantification was by HPLC using a previously developed HPLC method (Table 4). A standard curve with a concentration range from 0.001 mg/mL-0.3 mg/ml. The solubility was automatically calculated using the peak area of the main peak in the chromatogram.
Aqueous solubility was determined by suspending sufficient compound in water to give a maximum final concentration of ≥10 mg/mL of the parent free-form of the compound. The suspension was equilibrated at 25° C. for 24 hours then the pH was measured. The suspension was then filtered through a glass fibre C filter. The filtrate was then diluted by an appropriate factor e.g. 101. Quantitation was by HPLC with reference to a standard solution of approximately 0.25 mg/mL in DMSO. Different volumes of the standard, diluted and undiluted sample solutions were injected. […]

[3] = crystalline Form A, between 0-90% RH

Compound | Hygroscopicity, weight increase ([1]; re-crystallized salt forms) | Hygroscopicity ([1]; crude salt forms) | Hygroscopicity ([1]; re-crystallized salt forms) | also measured
CCc1[nH]nc(C(=O)Nc2ccc([C@H]3CNCCO3)cc2)c1C [5-ethyl-4-methyl-N-[4-[(2S)morpholin-2-yl]phenyl]-1H-pyrazole-3-carboxamide, mono hydrochloric acid salt] | – | – | – | relative humidity at which rate of water uptake was observed to increase ([1]; crystalline Form A): > 80 % RH; hysteresis (DVS) [1, 3]: no hysteresis; mass uptake (DVS) [1, 3]: < 0.1%; pH of saturated aqueous solution ([2]; saturated aqueous solution after 24 hours): 5.3; solubility at 24 h ([2]; water, thermodynamic from solid, saturated aqueous solution, 24 hours at 25° C., pH 5.3): 52.8 mg/mL
CCc1[nH]nc(C(=O)Nc2ccc([C@H]3CNCCO3)cc2)c1C [Adipic acid, 5-ethyl-4-methyl-N-[4-[(2S)morpholin-2-yl]phenyl]-1H-pyrazole-3-carboxamide] | (0.2%-m/m | – | – | –
CCc1[nH]nc(C(=O)Nc2ccc([C@H]3CNCCO3)cc2)c1C [Citric acid, 5-ethyl-4-methyl-N-[4-[(2S)morpholin-2-yl]phenyl]-1H-pyrazole-3-carboxamide] | – | Very hygroscopic; also recorded: (deliquescent) (deliquescent: sufficient water is adsorbed to form a liquid) | – | –
CCc1[nH]nc(C(=O)Nc2ccc([C@H]3CNCCO3)cc2)c1C [Glycolic acid, 5-ethyl-4-methyl-N-[4-[(2S)morpholin-2-yl]phenyl]-1H-pyrazole-3-carboxamide] | – | Very hygroscopic; also recorded: (deliquescent) (deliquescent: sufficient water is adsorbed to form a liquid) | – | –
CCc1[nH]nc(C(=O)Nc2ccc([C@H]3CNCCO3)cc2)c1C [Hydrochloric acid, 5-ethyl-4-methyl-N-[4-[(2S)morpholin-2-yl]phenyl]-1H-pyrazole-3-carboxamide] | (<0.1%-m/m | – | Non-hygroscopic | Hygroscopicity, weight increase ([1]; crude salt forms): (0.5%-m/m weight
CCc1[nH]nc(C(=O)Nc2ccc([C@H]3CNCCO3)cc2)c1C [L(+)-Tartaric acid, 5-ethyl-4-methyl-N-[4-[(2S)morpholin-2-yl]phenyl]-1H-pyrazole-3-carboxamide] | (0.4%-m/m | – | – | –
CCc1[nH]nc(C(=O)Nc2ccc([C@H]3CNCCO3)cc2)c1C [Methanesulfonic acid, 5-ethyl-4-methyl-N-[4-[(2S)morpholin-2-yl]phenyl]-1H-pyrazole-3-carboxamide] | – | Hygroscopic | – | phase transformation (relative humidity) ([1]; crude salt form, at 25° C.): at >80%-RH at; Hygroscopicity, weight increase ([1]; crude salt forms): (8.5%-m/m weight
CCc1[nH]nc(C(=O)Nc2ccc([C@H]3CNCCO3)cc2)c1C [Phosphoric acid, 5-ethyl-4-methyl-N-[4-[(2S)morpholin-2-yl]phenyl]-1H-pyrazole-3-carboxamide] | (0.2%-m/m | – | – | –
CCc1[nH]nc(C(=O)Nc2ccc([C@H]3CNCCO3)cc2)c1C [Sulfuric acid, 5-ethyl-4-methyl-N-[4-[(2S)morpholin-2-yl]phenyl]-1H-pyrazole-3-carboxamide] | (0.1%-m/m | – | Non-hygroscopic | –
CCc1[nH]nc(C(=O)Nc2ccc([C@H]3CNCCO3)cc2)c1C [p-Toluenesulfonic acid, 5-ethyl-4-methyl-N-[4-[(2S)morpholin-2-yl]phenyl]-1H-pyrazole-3-carboxamide] | (<0.1%-m/m | – | Non-hygroscopic | –
